Legend:
in vivo [1] = details: Wistar, rat, po, 0.6 mg/kg
in vivo [2] = details: Wistar, rat, iv, 0.3 mg/kg
in vivo [3] = details: mouse, iv, 0.3 mg/kg
in vivo [4] = details: Wistar, rat, iv, 0.3 mg/kg; remark: listed apart in the source
in vivo [5] = details: Wistar, rat, po, 0.6 mg/kg; remark: listed apart in the source
in vivo [6] = details: Wistar, rat, iv, 0.3 mg/kg; remark: listed apart in the source
in vivo [7] = details: mouse, iv, 0.3 mg/kg; remark: listed apart in the source
in vivo [8] = details: mouse, iv, 0.3 mg/kg; remark: listed apart in the source

## FC(F)c1cncc(-c2ccc3ncc4nnc(C5=CCCOCC5)n4c3c2)c1
In vivo [1]
  half-life at 24 h: 240 min
In vivo [2]
  half-life at 24 h: 50.4 min
In vivo [3]
  clearance at 24 h: 135 mL/min/kg
In vivo [4]
  clearance at 24 h: 36.7 mL/min/kg
In vivo [5]
  bioavailability at 24 h: 22%
In vivo [6]
  Vd at 24 h: 1.8 L/kg
In vivo [7]
  Vd at 24 h: 3.7 L/kg
In vivo [8]
  half-life at 24 h: 40.8 min

— ChEMBL document CHEMBL4837246 (J Med Chem, 2021)
